Experimental data reported in patent publication US12479847B2 (DANA-FARBER CANCER INSTITUTE, INC., priority 2019, dated 2025).
Read-outs that look alike come from different tables or passages of the source.

Key:
Assay in all cases: KINOMEscan (ScanMAX) kinase profiling
Format in all cases: binding
panel of 468 kinases [1] = molecular target: T1, panel of 468 kinases (Homo sapiens, UniProt P29376); conditions: LTK; 1 μM; read-out: % control
T1 construct: purchased KINOMEscan (ScanMAX) service

panel of 468 kinases [2] = molecular target: T2, panel of 468 kinases (Homo sapiens, UniProt Q15349); conditions: 1 μM, read-out: % control
T2 construct: purchased KINOMEscan (ScanMAX) service

panel of 468 kinases [3] = molecular target: T3, panel of 468 kinases (Homo sapiens, UniProt Q9UKI8); conditions: TLK1; 1 μM; read-out: % control
T3 construct: purchased KINOMEscan (ScanMAX) service
T3 sequence (Q9UKI8 1-766): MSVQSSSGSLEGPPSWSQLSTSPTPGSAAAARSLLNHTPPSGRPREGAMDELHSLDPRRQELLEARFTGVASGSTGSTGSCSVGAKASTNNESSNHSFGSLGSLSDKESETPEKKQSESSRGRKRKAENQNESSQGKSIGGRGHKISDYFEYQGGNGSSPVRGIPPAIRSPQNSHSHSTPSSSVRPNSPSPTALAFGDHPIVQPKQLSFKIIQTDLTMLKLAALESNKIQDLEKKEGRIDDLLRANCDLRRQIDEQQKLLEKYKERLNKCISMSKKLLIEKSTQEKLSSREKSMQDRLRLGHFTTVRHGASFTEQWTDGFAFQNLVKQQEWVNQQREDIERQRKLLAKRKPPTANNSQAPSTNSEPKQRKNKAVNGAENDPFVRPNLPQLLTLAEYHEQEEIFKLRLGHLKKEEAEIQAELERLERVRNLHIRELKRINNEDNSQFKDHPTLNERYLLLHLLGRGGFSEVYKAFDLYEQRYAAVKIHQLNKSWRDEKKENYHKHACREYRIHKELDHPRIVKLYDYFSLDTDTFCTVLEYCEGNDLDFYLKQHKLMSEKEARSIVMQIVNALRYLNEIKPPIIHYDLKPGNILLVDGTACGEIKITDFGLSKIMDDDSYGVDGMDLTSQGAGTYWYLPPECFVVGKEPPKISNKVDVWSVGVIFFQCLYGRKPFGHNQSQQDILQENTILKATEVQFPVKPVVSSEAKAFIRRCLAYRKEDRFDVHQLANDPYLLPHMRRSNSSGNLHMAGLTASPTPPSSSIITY

panel of 468 kinases [4] = molecular target: T4, panel of 468 kinases (Homo sapiens, UniProt Q9UEW8); conditions: STK39; 1 μM; read-out: % control
T4 construct: purchased KINOMEscan (ScanMAX) service

panel of 468 kinases [5] = molecular target: T5, panel of 468 kinases (Homo sapiens, UniProt Q9H093); conditions: SNARK; 1 μM; read-out: % control
T5 construct: purchased KINOMEscan (ScanMAX) service
T5 sequence (Q9H093 1-628): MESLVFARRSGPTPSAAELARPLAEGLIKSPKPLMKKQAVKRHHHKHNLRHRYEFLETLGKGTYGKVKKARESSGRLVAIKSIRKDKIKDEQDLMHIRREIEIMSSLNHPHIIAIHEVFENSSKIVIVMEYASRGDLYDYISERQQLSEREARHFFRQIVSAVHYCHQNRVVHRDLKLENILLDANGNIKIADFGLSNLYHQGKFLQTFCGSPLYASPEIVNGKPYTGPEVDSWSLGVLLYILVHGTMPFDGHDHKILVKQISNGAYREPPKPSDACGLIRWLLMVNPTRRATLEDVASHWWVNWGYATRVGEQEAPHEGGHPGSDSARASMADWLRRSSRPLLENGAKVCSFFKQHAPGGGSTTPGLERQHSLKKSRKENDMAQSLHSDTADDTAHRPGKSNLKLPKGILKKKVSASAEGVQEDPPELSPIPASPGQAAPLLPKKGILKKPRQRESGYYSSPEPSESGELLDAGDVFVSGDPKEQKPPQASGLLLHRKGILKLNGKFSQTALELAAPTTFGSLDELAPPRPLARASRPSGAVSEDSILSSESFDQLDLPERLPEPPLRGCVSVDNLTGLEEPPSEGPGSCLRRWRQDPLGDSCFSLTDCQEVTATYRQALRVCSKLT

panel of 468 kinases [6] = molecular target: T6, panel of 468 kinases (Homo sapiens, UniProt P07949, V804L); conditions: RET(V804L); 1 μM; read-out: % control
T6 construct: purchased KINOMEscan (ScanMAX) service
T6 sequence (P07949 29-1114 V804L): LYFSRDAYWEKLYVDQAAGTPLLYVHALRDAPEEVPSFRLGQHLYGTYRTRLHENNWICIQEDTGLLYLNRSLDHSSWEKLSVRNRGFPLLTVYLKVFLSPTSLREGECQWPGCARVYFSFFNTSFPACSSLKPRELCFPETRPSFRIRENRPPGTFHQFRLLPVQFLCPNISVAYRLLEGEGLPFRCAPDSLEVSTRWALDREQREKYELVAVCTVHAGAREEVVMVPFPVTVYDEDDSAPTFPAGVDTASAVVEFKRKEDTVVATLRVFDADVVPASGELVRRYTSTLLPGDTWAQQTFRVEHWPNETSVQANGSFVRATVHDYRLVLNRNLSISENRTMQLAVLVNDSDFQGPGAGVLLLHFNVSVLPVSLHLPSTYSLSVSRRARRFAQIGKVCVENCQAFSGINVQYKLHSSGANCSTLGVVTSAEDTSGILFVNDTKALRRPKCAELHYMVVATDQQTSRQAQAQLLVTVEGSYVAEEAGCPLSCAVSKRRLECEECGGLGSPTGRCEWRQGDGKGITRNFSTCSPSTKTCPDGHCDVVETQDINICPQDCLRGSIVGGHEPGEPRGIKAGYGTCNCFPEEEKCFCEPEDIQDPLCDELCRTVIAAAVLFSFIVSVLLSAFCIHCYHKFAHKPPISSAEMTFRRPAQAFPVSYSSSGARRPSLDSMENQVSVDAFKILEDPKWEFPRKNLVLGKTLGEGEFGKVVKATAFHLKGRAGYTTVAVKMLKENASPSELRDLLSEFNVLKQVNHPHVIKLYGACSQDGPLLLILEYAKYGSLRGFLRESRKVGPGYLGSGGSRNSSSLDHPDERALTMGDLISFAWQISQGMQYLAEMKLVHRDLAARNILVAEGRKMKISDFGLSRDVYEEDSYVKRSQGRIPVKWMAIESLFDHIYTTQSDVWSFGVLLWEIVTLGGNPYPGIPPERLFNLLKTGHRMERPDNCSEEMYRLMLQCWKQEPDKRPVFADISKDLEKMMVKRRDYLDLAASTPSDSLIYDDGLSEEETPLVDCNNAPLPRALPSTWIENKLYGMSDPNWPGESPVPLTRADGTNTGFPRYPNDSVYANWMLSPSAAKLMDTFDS

T2 sequence (Q15349 whole entry): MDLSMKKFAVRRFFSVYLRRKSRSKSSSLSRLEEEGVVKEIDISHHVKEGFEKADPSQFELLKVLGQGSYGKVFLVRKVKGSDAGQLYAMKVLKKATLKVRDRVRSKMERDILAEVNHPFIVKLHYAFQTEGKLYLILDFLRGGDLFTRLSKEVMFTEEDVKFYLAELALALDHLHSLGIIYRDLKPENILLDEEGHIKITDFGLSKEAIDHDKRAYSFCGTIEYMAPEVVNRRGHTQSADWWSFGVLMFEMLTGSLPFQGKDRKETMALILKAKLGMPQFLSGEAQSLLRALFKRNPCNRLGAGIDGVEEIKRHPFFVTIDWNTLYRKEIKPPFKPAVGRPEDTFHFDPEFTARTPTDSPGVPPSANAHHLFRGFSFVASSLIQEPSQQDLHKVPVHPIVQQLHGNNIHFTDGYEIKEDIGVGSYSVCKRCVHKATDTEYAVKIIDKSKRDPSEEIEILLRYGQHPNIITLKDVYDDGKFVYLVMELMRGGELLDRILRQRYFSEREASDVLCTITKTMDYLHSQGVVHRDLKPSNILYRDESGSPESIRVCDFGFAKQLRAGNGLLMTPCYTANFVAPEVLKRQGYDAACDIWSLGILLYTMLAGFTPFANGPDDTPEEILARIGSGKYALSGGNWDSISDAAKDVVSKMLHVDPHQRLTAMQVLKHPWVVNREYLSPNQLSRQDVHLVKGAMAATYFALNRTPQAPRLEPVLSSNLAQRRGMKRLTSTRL
T1 sequence (P29376 17-864): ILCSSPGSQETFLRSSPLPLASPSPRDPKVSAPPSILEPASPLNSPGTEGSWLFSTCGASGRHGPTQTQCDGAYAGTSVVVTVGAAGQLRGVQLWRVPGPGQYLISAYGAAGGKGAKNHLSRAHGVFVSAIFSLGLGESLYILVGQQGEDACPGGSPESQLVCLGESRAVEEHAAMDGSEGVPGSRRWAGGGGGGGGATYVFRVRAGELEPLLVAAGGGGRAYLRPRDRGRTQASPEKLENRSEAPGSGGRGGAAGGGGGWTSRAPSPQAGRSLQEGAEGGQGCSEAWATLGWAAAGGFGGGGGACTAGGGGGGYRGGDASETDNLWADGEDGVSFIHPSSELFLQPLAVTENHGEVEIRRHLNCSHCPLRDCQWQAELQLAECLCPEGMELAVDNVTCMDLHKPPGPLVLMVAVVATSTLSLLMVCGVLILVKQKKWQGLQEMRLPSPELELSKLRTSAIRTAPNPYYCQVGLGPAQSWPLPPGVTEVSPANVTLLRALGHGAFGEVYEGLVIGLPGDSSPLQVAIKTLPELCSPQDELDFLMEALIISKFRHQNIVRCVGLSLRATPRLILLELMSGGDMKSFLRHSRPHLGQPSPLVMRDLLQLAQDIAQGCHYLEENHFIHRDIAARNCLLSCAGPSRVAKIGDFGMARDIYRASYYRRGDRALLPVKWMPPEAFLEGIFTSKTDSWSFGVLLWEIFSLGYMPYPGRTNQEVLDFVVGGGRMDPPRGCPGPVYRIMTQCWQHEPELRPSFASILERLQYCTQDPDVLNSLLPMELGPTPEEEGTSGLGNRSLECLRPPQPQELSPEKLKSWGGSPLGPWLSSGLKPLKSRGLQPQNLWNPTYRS

SMILES | remaining binding at 1 µM (panel of 468 kinases [1]) [%] | remaining binding at 1 µM (panel of 468 kinases [2]; RSK3(Kin.Dom.1-N-terminal)) [%] | remaining binding at 1 µM (panel of 468 kinases [2]; RSK3(Kin.Dom.2-C-terminal)) [%] | remaining binding at 1 µM (panel of 468 kinases [3]) [%] | remaining binding at 1 µM (panel of 468 kinases [4]) [%] | remaining binding at 1 µM (panel of 468 kinases [5]) [%] | remaining binding at 1 µM (panel of 468 kinases [6]) [%]
CNc1nc(Nc2ccc(C(=O)N3CCC(N4CCOCC4)CC3)c3c2OCO3)nc2[nH]cc(Cl)c12 [Compound 75, (7-((5-chloro-4-(methylamino)-7H-pyrrolo[2,3-d]pyrimidin-2-yl)amino)benzo[d][1,3]dioxol-4-yl)(4-morpholinopiperidin-1-yl)methanone] | 19 | 100 | 57 | 86 | 5.4 | 19 | 42
CNc1nc(Nc2ccc(S(=O)(=O)N3CCC(N4CCOCC4)CC3)cc2OC)nc2[nH]cc(Cl)c12 [Compound 12, 5-chloro-N2-(2-methoxy-4-((4-morpholinopiperidin-1-yl)sulfonyl)phenyl)-N4-methyl-7H-pyrrolo[2,3-d]pyrimidine-2,4-diamine] | 22 | 100 | 70 | 89 | 4.8 | 75 | 89
CNc1nc(Nc2ccc(P3(=O)CCN(C4CCOCC4)CC3)cc2OC)nc2[nH]cc(Cl)c12 [Compound 77, 4-(4-((5-chloro-4-(methylamino)-7H-pyrrolo[2,3-d]pyrimidin-2-yl)amino)-3-methoxyphenyl)-1-(tetrahydro-2H-pyran-4-yl)-1,4-azaphosphinane 4-oxide] | 21 | 100 | 20 | 96 | 0.5 | 70 | 100
